The record followed here is ChEMBL document CHEMBL1146649, “New highly active taxoids from 9 beta-dihydrobaccatin-9,10-acetals. Part 5” (2004).

Molecules are shown by their SMILES. ≈ marks a conversion by molar mass, not a printed value. Where only a bound is given, the exact number is not on record here.

Test [1] has as its system PC-6. As to the kind of experiment: Concentration that inhibited the growth of PC-6/VCR29-9 cells by 50% at 72 hr continuous exposure. To be noted: Homo sapiens, PC-6, 72 h. The class given is functional.
Test [2] relates to PC-6. As to the kind of experiment: Concentration required to inhibit human PC-6/VP1-1 cell line growth by 50% at 72 hr exposure. The class given is functional. The following applies: PC-6, 72 h.
Test [3] relates to B16. Briefly: Effective dose of perorally administered compound against B16 melanoma BL6 cells implanted into mice. The following applies: Mus musculus, B16, po. The class given is functional.
The subject of test [4] is Mus musculus. Briefly: Effective dose of intravenously administered compound against B16 melanoma BL6 cells implanted into mice; range is 3.5-5.3. The following applies: B16, iv. The format is functional.
Test [5] deals with PC-6. As to the kind of experiment: Concentration required to inhibit human PC-6 cell line growth by 50% at 72 hr continuous exposure. The format is functional. To be noted: PC-6, 72 h.
Test [6] relates to PC-12. As to the kind of experiment: Concentration required to inhibit human PC-12 cell line growth by 50% at 72 hr continuous exposure. To be noted: PC-12, 72 h. The class given is functional.
In test [7] the test system is P388. As to the kind of experiment: Concentration required to inhibit mouse P388 cell line growth by 50% at 72 hr continuous exposure. The class given is functional. To be noted: P388, 72 h.
For test [8], the system named is Mus musculus. Briefly: Number of mice died at 17.8 mg/kg of peroral dose among the total 6 mice tested. To be noted: route oral. The format is functional.
The subject of test [9] is B16. Briefly: Antitumor activity of 17.8 mg/kg of perorally administered compound against B16 melanoma BL6 cells implanted into mice, value reported is percent compared to control. To be noted: route oral. The format is functional, Mus musculus.
Test [10] relates to B16. As to the kind of experiment: Antitumor activity of 11.9 mg/kg of perorally administered compound against B16 melanoma BL6 cells implanted into mice, value reported is percent compared to control. The following applies: route oral. The format is functional, Mus musculus.
In test [11] the test system is Mus musculus. Briefly: Number of mice died at 17.8 mg/kg of intravenous dose among the total 6 mice tested. The format is functional.
Test [12] deals with Mus musculus. Briefly: Antitumor activity of 7.9 mg/kg of perorally administered compound against B16 melanoma BL6 cells implanted into mice, value reported is percent compared to control. The format is functional. To be noted: route oral.
Test [13] has as its system Mus musculus. Briefly: Number of mice died at 11.9 mg/kg of intravenous dose, among the total 6 mice tested. The class given is functional.
Test [14] has as its system Mus musculus. As to the kind of experiment: Antitumor activity of 17.8 mg/kg of intravenously administered compound against B16 melanoma BL6 cells implanted into mice, value reported is percent compared to control. The class given is functional. The following applies: route intravenous.
Test [15] has as its system Mus musculus. As to the kind of experiment: Number of mice died at 26.7 mg/kg of intravenous dose of compound among the total 6 mice tested. The class given is functional.
The test system of test [16] is Mus musculus. Briefly: Effective dose of perorally administered compound against B16 melanoma BL6 cells implanted into mice; range is 11.9-17.8. The class given is functional. The following applies: B16, po.
Test [17] relates to Mus musculus. As to the kind of experiment: Number of mice died at 7.9 mg/kg of peroral dose of compound among the total 6 mice tested. The class given is functional. To be noted: route oral.
Test [18] concerns Mus musculus. Briefly: Number of mice died at 26.7 mg/kg of peroral dose of compound among the total 6 mice tested. The class given is functional. The following applies: route oral.
The test system of test [19] is Mus musculus. As to the kind of experiment: Maximum rate of body weight loss after peroral administration of 26.7 mg/kg of compound in mice. The format is functional. The following applies: route oral.
Test [20] relates to Mus musculus. Briefly: Maximum rate of body weight loss after peroral administration of 7.9 mg/kg of compound in mice. The class given is functional. To be noted: route oral.
Test [21] relates to Mus musculus. As to the kind of experiment: Number of mice died at 11.9 mg/kg of peroral dose, among the total 6 mice tested. The class given is functional. To be noted: route oral.
Test [22] concerns Mus musculus. As to the kind of experiment: Maximum rate of body weight loss after peroral administration of 11.9 mg/kg of compound in mice; <0 indicates no weight loss. The class given is functional. To be noted: route oral.
In test [23] the test system is Mus musculus. As to the kind of experiment: Antitumor activity of 26.7 mg/kg of perorally administered compound against B16 melanoma BL6 cells implanted into mice, value reported is percent compared to control. The format is functional. The following applies: route oral.
Test [24] deals with Mus musculus. Briefly: Maximum rate of body weight loss after peroral administration of 17.8 mg/kg of compound in mice. The format is functional. The following applies: route oral.
Test [25] deals with Mus musculus. Briefly: Maximum rate of body weight loss after intravenous administration of 7.9 mg/kg of compound in mice. The format is functional.
The test system of test [26] is PC-6. Briefly: Concentration required to inhibit human PC-6/VCR29-9 cell line growth by 50% at 72 hr exposure. The format is functional. To be noted: PC-6, 72 h.
In test [27] the test system is Mus musculus. Briefly: Maximum rate of body weight loss after intravenous administration of 17.8 mg/kg of compound in mice. The format is functional.
For test [28], the system named is Mus musculus. Briefly: Number of mice died at 7.9 mg/kg of intravenous dose of compound among the total 6 mice tested. The class given is functional.
Test [29] deals with B16. Briefly: Antitumor activity of 11.9 mg/kg of intravenously administered compound against B16 melanoma BL6 cells implanted into mice, value reported is percent compared to control. The format is functional, Mus musculus. To be noted: route intravenous.
Test [30] has as its system Mus musculus. As to the kind of experiment: Effective dose of intravenously administered compound against B16 melanoma BL6 cells implanted into mice; range is 11.9-17.8. To be noted: B16, iv. The format is functional.
The subject of test [31] is Mus musculus. Briefly: Antitumor activity of 7.9 mg/kg of intravenously administered compound against B16 melanoma BL6 cells implanted into mice, value reported is percent compared to control. The format is functional. To be noted: route intravenous.
The subject of test [32] is Mus musculus. Briefly: Maximum rate of body weight loss after intravenous administration of 11.9 mg/kg of compound in mice; <0 indicates no weight loss. The format is functional.

Usually GI50 stands for the concentration at which growth is held to half of that of the control. Read a high GI50 as lower sensitivity of the cells. Usually ED50 stands for the dose that gives a 50% effect, or the effect in half of the subjects. High values mean a need for a large dose, low ones an effect at a small dose. As to `CC(=O)O[C@@]12CO[C@@H]1CC[C@@]1(C)[C@@H]3O[C@H](CN4CCOCC4)O[C@@H]3C3=C(C)[C@@H](OC(=O)[C@H](O)[C@@H](NC(=O)OC(C)(C)C)c4cscn4)C[C@@](O)([C@@H](OCc4ccccc4)[C@@H]12)C3(C)C`, the GI50 in [1] was 1.02 ng/mL (≈ 1.14 nM); in test [2], 9.13 ng/mL (≈ 10.2 nM); in [5], 0.65 ng/mL (≈ 0.724 nM); in [6], 0.08 ng/mL (≈ 0.0891 nM); in test [7] it was 0.03 ng/mL (≈ 0.0334 nM). Besides, the ED50 in test [3] worked out at 7.9 mg/kg; in test [4], 5.3 mg/kg.
With `CC(=O)O[C@@]12CO[C@@H]1CC[C@@]1(C)[C@@H]3O[C@H](CN4CCOCC4)O[C@@H]3C3=C(C)[C@@H](OC(=O)[C@H](O)[C@@H](NC(=O)OC(C)(C)C)c4cccc(F)n4)C[C@@](O)([C@@H](OCc4ccccc4)[C@@H]12)C3(C)C`, the Mortality worked out at 0 in [8]; 0 in test [11]; 0 in test [13]; 6 in test [15]; 0 in test [17]; 1 in [18]. Also, the Mortality in test [21] and in test [28] was 0 each time. The IR is reported as 88.5% in test [9]; 65.9% in test [10]; -16.3% in test [12]; 94.7% in test [14]; 97.4% in test [23]; 85.7% in test [29]. Moreover, the IR in test [31] stood at 28.6%. Also, the 50% growth inhibitory concentration (GI50) was found to be 13.7 ng/mL (≈ 15.1 nM) in [2]; 0.29 ng/mL (≈ 0.319 nM) in test [5]; 0.96 ng/mL (≈ 1.05 nM) in [26]; 0.14 ng/mL (≈ 0.154 nM) in [6]; 0.2 ng/mL (≈ 0.22 nM) in [7]. In addition, the ED50 in [16] and in [30] was 17.8 mg/kg throughout. Moreover, the BWLmax in [19] is on record as 16.6%; in [20] it was 0.8%; in test [22], less than 0%; in test [24], 2.2%; in test [25] it was 0.3%; in test [27], 11.9%. Also, the BWLmax in [32] was less than 0%.
